Data taken from paper PMC8156151 (The European Respiratory Journal, 2021).
Read-outs that look alike come from different tables or passages of the source.

Tests used:
Format in all cases: in vivo, human
[1] = Plasma pharmacokinetics, part 1 (healthy subjects)
Protocol: Subjects were discharged 24 h post-dose (day 2) provided there were no safety concerns, and returned for three outpatient visits on days 3, 8 and 14 post-dose, with a post-study follow-up between days 26 and 30. Safety and PK assessments were made at predetermined time-points.
Full plasma PK profiles were conducted on days 1 (first day of dosing) and 14 (last day of dosing). […] Standard noncompartmental methods were applied to derive PK parameters using Phoenix WinNonlin version 6.3 (Certara, Sheffield, UK). […] Drug compartment measurements in BAL alveolar macrophages and fluid were determined as described previously.

MIF = assay: Plasma biomarker MIF; conditions: for MIF raw data, Mean (SD) / MIF least square means % baseline±SEM: IPF patients
Protocol: (§1) All patients, investigators, sites and study sponsor personnel were blinded to the study group assignments throughout the study. Patients underwent study-specific assessments on days 2, 3, 7, 14 and 15, and a post-study assessment was carried out 26–30 days after the last day of the study period. Assessments included vital signs (supine blood pressure, pulse, oxygen saturation, oral temperature and respiratory rate), spirometry, 12-lead ECG, physical examination, laboratory safety screen (haematology, biochemistry, urinalysis and urinary drugs of abuse screen) and blood sampling for PK measurements. All adverse events and concomitant medications were recorded from the time of the screening visit until the post-study follow-up visit. BAL was performed at day −1 (24 h before the first dose) and at day 14 (2 h after the last dose). The BAL procedure was performed as per international guidelines. Briefly, 240 mL of 0.9% saline at room temperature was instilled in 40 mL aliquots into the right middle lobe and aspirated by suction after each aliquot.
(§2) BAL cells were separated from fluid by centrifugation, and cells were collected, stained with antibodies (supplementary material) and then fixed before analysis using a LSR Fortessa flow cytometer (Becton Dickinson, Franklin Lakes, NJ, USA). Data were analysed using FlowJo software (Tree Star, Ashland, OR, USA). Macrophages were identified as having high side scatter properties and human leukocyte antigen-DR positivity. Gal-3 expression (mean fluorescence intensity) was determined from the macrophage gate (supplementary figures S1 and S2). […] Samples were analysed by magnetic Luminex assay (R&D Systems, Minneapolis, MN, USA) or ELISA.
(§3) For part 2 of the study, placebos were combined from the three dose-specific cohorts into a pooled control group (n=9). For alveolar macrophage Gal-3 expression and the plasma biomarkers, ANCOVA was performed for percentage of baseline ((day 14/day 1)×100). The ANCOVA model included effects for treatment group and baseline (day 1) value. […] An additional analysis including dose as a continuous covariate was also performed. The Pearson correlation coefficient (r) and associated p-value were calculated for percentage of baseline and day 14 values between plasma biomarkers and alveolar macrophage Gal-3 expression. […] The analysis is exploratory and there was no pre-planned adjustment for multiple testing; the study was not powered for this. Alveolar macrophage Gal-3 expression was considered the primary exploratory analysis with the pre-selected biomarkers secondary. A Bonferroni correction for multiple testing of the secondary end-points comparing the 10 mg group with placebo gives a critical value of 0.0063. Data are presented as the difference in least square means with 95% confidence interval and p-value unless otherwise stated. All analyses were performed using SAS version 9.4 (SAS Institute, Cary, NC, USA). […]

PTX3 = assay: Plasma biomarker PTX3; conditions: for Pentraxin-3 (PTX3) raw data, Mean (SD) / PTX3 least square means % baseline±SEM: IPF patients
Protocol: as §1, §2, §3

SP-D = assay: Plasma biomarker SP-D; conditions: for SP-D raw data, Mean (SD) / SP-D least square means % baseline±SEM: IPF patients
Protocol: as §1, §2, §3

patients with IPF = assay: Safety and tolerability (TEAEs), part 2, once-daily inhaled dose for 14 days
Source text: Following completion of dosing for the final subject in each dosing cohort, an interim dose review meeting was held with a safety committee consisting of the principal investigator, medical monitor, pharmacokineticist and statistician to review the safety, tolerability and PK data (study design schematic shown in figure 1). The study statistician and pharmacokineticist were unblinded at the end of each cohort in order to conduct the analyses required for dose review decisions. The primary end-point was the safety and tolerability of single or multiple doses of TD139 in healthy subjects or IPF patients, respectively.

MMP-1 = assay: Plasma biomarker MMP-1; conditions: for MMP-1 raw data, Mean (SD) / MMP-1 least square means % baseline±SEM: IPF patients
Protocol: as §1, §2, §3

[2] = human, inhaled or intranasal, single inhaled 1.5 mg, mean±SD
[3] = human, inhaled or intranasal, single inhaled 3 mg, mean±SD
[4] = human, inhaled or intranasal, single inhaled 10 mg, mean±SD
[5] = human, inhaled or intranasal, single inhaled 20 mg, mean±SD
[6] = human, inhaled or intranasal, single inhaled 50 mg, mean±SD
[7] = IPF patients, inhaled 0.3 mg once daily 14 days
[8] = IPF patients, inhaled 3 mg once daily 14 days
[9] = IPF patients, inhaled 10 mg once daily 14 days

With `OC[C@H]1O[C@@H](S[C@@H]2O[C@H](CO)[C@H](O)[C@H](n3cc(-c4cccc(F)c4)nn3)[C@H]2O)[C@H](O)[C@@H](n2cc(-c3cccc(F)c3)nn2)[C@H]1O` [TD139] the AUC(0-inf) [1, 2] was 17.9 ± 14 ng·h/mL, the half-life [1, 2] was 1.13 ± 0.63 h and the Cmax ([1]; human, inhaled or intranasal, single inhaled 1.5 mg, mean±SD, read-out: Cmax) was 2.37 ± 1.48 ng/mL. It also gave an AUC(0-inf) [1, 3] of 70.8 ± 22.7 ng·h/mL, a half-life [1, 3] of 3 ± 0.82 h and a Cmax ([1]; human, inhaled or intranasal, single inhaled 3 mg, mean±SD, read-out: Cmax) of 8.21 ± 2.67 ng/mL. For the same compound, the AUC(0-inf) [1, 4] was 184 ± 64.5 ng·h/mL, the half-life [1, 4] was 1.19 ± 0.94 h and the Cmax ([1]; human, inhaled or intranasal, single inhaled 10 mg, mean±SD, read-out: Cmax) was 22.6 ± 8.69 ng/mL. It also gave an AUC(0-inf) [1, 5] of 544 ± 114 ng·h/mL, a half-life [1, 5] of 1.31 ± 1.8 h and a Cmax ([1]; human, inhaled or intranasal, single inhaled 20 mg, mean±SD, read-out: Cmax) of 81.1 ± 27 ng/mL. For the same compound, the AUC(0-inf) [1, 6] was 1160 ± 532 ng·h/mL, the half-life [1, 6] was 0.81 ± 0.8 h and the Cmax ([1]; human, inhaled or intranasal, single inhaled 50 mg, mean±SD, read-out: Cmax) was 126 ± 43.3 ng/mL. For the same compound, the Cmax ([1]; single inhaled 0.15 mg, BLQ: below limit of quantification (0.5 ng·mL^−1)) was “BLQ”, the “MIF difference in least square means % baseline (95% CI)” value (MIF; 10 mg vs placebo, ANCOVA) was −120.2 (−339.2–98.9) % baseline and the “MIF raw data, Mean (SD)” value (MIF; Day 14, 0.3 mg) was 65871.3 (42284.53) pg/ml. The “MIF raw data, Mean (SD)” value (MIF; Day 14, 3 mg) was 38884 (35236.82) pg/ml, the “MIF raw data, Mean (SD)” value (MIF; Day 14, 10 mg) was 39660.6 (57202.1) pg/ml and the “MIF least square means % baseline±SEM” value (MIF; day 14, 0.3 mg once daily) was 123.6±83.6 % baseline. For the same compound, the “MIF least square means % baseline±SEM” value (MIF; day 14, 3 mg once daily) was 95.9±83.9 % baseline, the “MIF least square means % baseline±SEM” value (MIF; day 14, 10 mg once daily) was 73.9±83.7 % baseline and the “PTX3 difference in least square means % baseline (95% CI)” value (PTX3; 10 mg vs placebo, ANCOVA) was −69.6 (−220.3–81.2) % baseline. The “Pentraxin-3 (PTX3) raw data, Mean (SD)” value (PTX3; Day 14, 0.3 mg) was 116.3 (214.7) pg/ml, the “Pentraxin-3 (PTX3) raw data, Mean (SD)” value (PTX3; Day 14, 3 mg) was 629.9 (581.55) pg/ml and the “Pentraxin-3 (PTX3) raw data, Mean (SD)” value (PTX3; Day 14, 10 mg) was 2534.7 (4451.2) pg/ml. For the same compound, the “PTX3 least square means % baseline±SEM” value (PTX3; day 14, 0.3 mg once daily) was 51.8±68.6 % baseline, the “PTX3 least square means % baseline±SEM” value (PTX3; day 14, 3 mg once daily) was 74.2±53.1 % baseline and the “PTX3 least square means % baseline±SEM” value (PTX3; day 14, 10 mg once daily) was 67.0±56.1 % baseline. The “SP-D difference in least square means % baseline (95% CI)” value (SP-D; 10 mg vs placebo, ANCOVA) was 4.0 (−41.0–49.1) % baseline, the “SP-D raw data, Mean (SD)” value (SP-D; Day 14, 0.3 mg) was 38987.4 (10734.36) pg/ml and the “SP-D raw data, Mean (SD)” value (SP-D; Day 14, 3 mg) was 91473.6 (43437.58) pg/ml. For the same compound, the “SP-D raw data, Mean (SD)” value (SP-D; Day 14, 10 mg) was 30347 (3552.88) pg/ml, the “SP-D least square means % baseline±SEM” value (SP-D; day 14, 0.3 mg once daily) was 109.6±16.6 % baseline and the “SP-D least square means % baseline±SEM” value (SP-D; day 14, 3 mg once daily) was 111.7±18.2 % baseline. For the same compound, the “SP-D least square means % baseline±SEM” value (SP-D; day 14, 10 mg once daily) was 118.7±17.3 % baseline, the “Subjects reporting ≥1 TEAE: Serious TEAE” value (patients with IPF; [7]) was 0 n (%) and the “Subjects reporting ≥1 TEAE: TEAE” value (patients with IPF; [7]) was 4 (80.0) n (%). For the same compound, the “Subjects reporting ≥1 TEAE: TEAE leading to withdrawal” value (patients with IPF; [7]) was 0 n (%), the “Subjects with TEAE by relationship to study IMP: Almost definite” value (“Subjects with TEAE … Almost definite” for short) (patients with IPF; [7]) was 0 n (%) and the “Subjects with TEAE by relationship to study IMP: Possible” value (“Subjects with TEAE … Possible” for short) (patients with IPF; [7]) was 1 (20.0) n (%). The “Subjects with TEAE by relationship to study IMP: Probable” value (from here on “Subjects with TEAE … Probable”) (patients with IPF; [7]) was 0 n (%), the “Subjects with TEAE by relationship to study IMP: Unlikely” value (from here on “Subjects with TEAE … Unlikely”) (patients with IPF; [7]) was 1 (20.0) n (%) and the “Subjects with TEAE by relationship to study IMP: Unrelated” value (from here on “Subjects with TEAE … Unrelated”) (patients with IPF; [7]) was 2 (40.0) n (%). For the same compound, the “Subjects with TEAE by severity: Mild” value (patients with IPF; [7]) was 2 (40.0) n (%), the “Subjects with TEAE by severity: Moderate” value (patients with IPF; [7]) was 2 (40.0) n (%) and the “Subjects with TEAE by severity: Severe” value (patients with IPF; [7]) was 0 n (%). For the same compound, the TEAEs (patients with IPF; [7]) was 9 n, the “Subjects reporting ≥1 TEAE: Serious TEAE” value (patients with IPF; [8]) was 0 n (%) and the “Subjects reporting ≥1 TEAE: TEAE” value (patients with IPF; [8]) was 5 (100.0) n (%). The “Subjects reporting ≥1 TEAE: TEAE leading to withdrawal” value (patients with IPF; [8]) was 0 n (%), the “Subjects with TEAE … Almost definite” value (patients with IPF; [8]) was 0 n (%) and the “Subjects with TEAE … Possible” value (patients with IPF; [8]) was 1 (20.0) n (%). The “Subjects with TEAE … Probable” value (patients with IPF; [8]) was 0 n (%), the “Subjects with TEAE … Unlikely” value (patients with IPF; [8]) was 1 (20.0) n (%) and the “Subjects with TEAE … Unrelated” value (patients with IPF; [8]) was 3 (60.0) n (%). For the same compound, the “Subjects with TEAE by severity: Mild” value (patients with IPF; [8]) was 4 (80.0) n (%), the “Subjects with TEAE by severity: Moderate” value (patients with IPF; [8]) was 1 (20.0) n (%) and the “Subjects with TEAE by severity: Severe” value (patients with IPF; [8]) was 0 n (%). For the same compound, the TEAEs (patients with IPF; [8]) was 10 n, the “Subjects reporting ≥1 TEAE: Serious TEAE” value (patients with IPF; [9]) was 1 (20.0) n (%) and the “Subjects reporting ≥1 TEAE: TEAE” value (patients with IPF; [9]) was 4 (80.0) n (%). The “Subjects reporting ≥1 TEAE: TEAE leading to withdrawal” value (patients with IPF; [9]) was 0 n (%), the “Subjects with TEAE … Almost definite” value (patients with IPF; [9]) was 0 n (%) and the “Subjects with TEAE … Possible” value (patients with IPF; [9]) was 0 n (%). For the same compound, the “Subjects with TEAE … Probable” value (patients with IPF; [9]) was 0 n (%), the “Subjects with TEAE … Unlikely” value (patients with IPF; [9]) was 2 (40.0) n (%) and the “Subjects with TEAE … Unrelated” value (patients with IPF; [9]) was 2 (40.0) n (%). The “Subjects with TEAE by severity: Mild” value (patients with IPF; [9]) was 1 (20.0) n (%), the “Subjects with TEAE by severity: Moderate” value (patients with IPF; [9]) was 2 (40.0) n (%) and the “Subjects with TEAE by severity: Severe” value (patients with IPF; [9]) was 1 (20.0) n (%). For the same compound, the TEAEs (patients with IPF; [9]) was 13 n, the “safety and tolerability” value (patients with IPF; IPF patients, multiple inhaled doses up to 10 mg) was “safe and well tolerated” and the “TEAE profile, biochemistry, haematology, vital signs or 12-lead ECG data” value (patients with IPF; part 2, IPF patients) was “no treatment- or dose-related trends observed”. The “patients with a TEAE considered possibly related to the study drug” value (patients with IPF; part 2, diarrhoea and dysgeusia/oropharyngeal pain) was “two”, the “MMP-1 difference in least square means % baseline (95% CI)” value (MMP-1; 10 mg vs placebo, ANCOVA) was −102.1 (−251.4–47.3) % baseline and the “MMP-1 raw data, Mean (SD)” value (MMP-1; Day 14, 0.3 mg) was 535.1 (449.22) pg/ml. For the same compound, the “MMP-1 raw data, Mean (SD)” value (MMP-1; Day 14, 3 mg) was 1494.4 (647.67) pg/ml, the “MMP-1 raw data, Mean (SD)” value (MMP-1; Day 14, 10 mg) was 537.5 (257.55) pg/ml and the “MMP-1 least square means % baseline±SEM” value (MMP-1; day 14, 0.3 mg once daily) was 67.3±56.3 % baseline. For the same compound, the “MMP-1 least square means % baseline±SEM” value (MMP-1; day 14, 3 mg once daily) was 107.1±59.1 % baseline and the “MMP-1 least square means % baseline±SEM” value (MMP-1; day 14, 10 mg once daily) was 62.1±58.1 % baseline.
